Measured values: US7422867B2, “Methods of identifying compounds that modulate IL-4 receptor mediated IgE synthesis utilizing a CLLD8 protein” (Rigel Pharmaceuticals, Inc., priority 2002, dated 2008)

How the values were obtained:
[1] = tested on: IL-4 induced germline ε transcription (ε promoter reporter in A5T4 cells); experiment: Re-infection (DNA transfer) assay in naïve A5T4 reporter cells; functional profile of mutants; format: cell-based, human; conditions: for Reporter Ratio: screening in the A5T4 reporter line, wild type and mutants
Procedure: The ability of peptide CL02A3 wt to inhibit germline ε transcription was confirmed in naïve cells. Briefly, Phoenix cells were transfected with a retroviral vector encoding a BFP-CL02A3 wt peptide fusion as described in WO 99/58663 and WO 97/27213. Naïve A5T4 cells were infected with the resultant virions and grown for 3 days. The infected cells were stimulated with IL-4 (60 U/mL) and, after 3 days, the cells were assessed by FACS for BFP and GFP.
A collection of CL02A3 mutants was generated by replacing single or double amino acid residues in the sequence of CL02A3 wt with a different amino acid, typically an alanine or glycine, as described in copending application Ser. No. 10/095,659, entitled Methods of Identifying Protein Targets, filed Mar. 8, 2002. The functional profiles for the mutants derived from CL02A3 wt was obtained by constructing and screening for activity in the A5T4 reporter cell line in the manner described above. The activity of each mutant at the germline ε promoter is reflected in the reporter ratio, as described above. The reporter ratios were the functional values that were used to develop the functional profiles.
TABLE 2 depicts the amino acid sequences (the dual alanine mutations are underlined) of the mutants tested and the measured reporter ratios when screening in the A5T4 reporter line.
Comparison of the interaction and functional profiles was performed by categorizing the mutants of CL02A3 based on the functional and interaction assays. Based on the reporter ratio, described in panel C of FIG. 4, each mutant was categorized into one of four functional categories: (1) reduction of function (ROF); (2) loss of function (LOF); (3) increase of function (IOF) or (4) functionally neutral (N), as compared to the activity of the wild type peptide, here CL02A3 wt. As mentioned previously, cells expressing a peptide that inhibits germline ε transcription have reporter ratios of ≧1.1. Cells expressing a loss of function mutant have a reporter ratio of […]. […] Functionally neutral mutants have reporter ratios that fall within ±50% of that of the CL02A3 wt peptide. The % increase or decrease in reporter ratio is calculated after subtracting 1.0 from the individual ratios. Using these criteria, peptides CL02A3LG (SEQ ID NO:2), CL02A3TP (SEQ ID NO:4), and CL02A3EQ (SEQ ID NO:5) were designated as IOF mutants, peptide CL02A3LGW (SEQ ID NO:3), CL02A3HH (SEQ ID NO:8), CL02A3PW (SEQ ID NO:9) were designated as ROF mutants, peptides CL02A3HG (SEQ ID NO:6), and CL02A3GC (SEQ ID NO:7) were designated as neutral, and peptide CL02A3AM (SEQ ID NO:10) was designated as a LOF mutant.

[2] = tested on: endogenous germline α promoter; experiment: TAQMAN assay of endogenous germline α promoter transcription in ST486 cells; format: cell-based; conditions: ST486 cells stimulated with TGF-β 40 ng/ml; average of 3 values
Procedure: The assay was similar to that described in the immediately preceding section, except that ST486 cells (ATCC # CRL-1647) engineered to express the tetracycline-regulated transactivator were infected and the infected cells were stimulated with TGF-β (40 ng/ml; Peprotech). The primers and probe, which are specific for the transcription product driven by the ST486 endogenous α promoter, were as follows (the probe was labeled at the 5′-end with Fam and at the 3′-end with Tamra): […]

[3] = target: T1, human CLLD8 protein (hCLLD8) (Homo sapiens, UniProt Q96T68, E117G/V473M); experiment: β-galactosidase yeast two hybrid (YTH) interaction assay; format: binding
T1 construct: expressed in transfected cells; prey cDNA came from a library of the A5T4 (BJAB-derived human B-cell) reporter line
T1 sequence (Q96T68 1-719 E117G/V473M): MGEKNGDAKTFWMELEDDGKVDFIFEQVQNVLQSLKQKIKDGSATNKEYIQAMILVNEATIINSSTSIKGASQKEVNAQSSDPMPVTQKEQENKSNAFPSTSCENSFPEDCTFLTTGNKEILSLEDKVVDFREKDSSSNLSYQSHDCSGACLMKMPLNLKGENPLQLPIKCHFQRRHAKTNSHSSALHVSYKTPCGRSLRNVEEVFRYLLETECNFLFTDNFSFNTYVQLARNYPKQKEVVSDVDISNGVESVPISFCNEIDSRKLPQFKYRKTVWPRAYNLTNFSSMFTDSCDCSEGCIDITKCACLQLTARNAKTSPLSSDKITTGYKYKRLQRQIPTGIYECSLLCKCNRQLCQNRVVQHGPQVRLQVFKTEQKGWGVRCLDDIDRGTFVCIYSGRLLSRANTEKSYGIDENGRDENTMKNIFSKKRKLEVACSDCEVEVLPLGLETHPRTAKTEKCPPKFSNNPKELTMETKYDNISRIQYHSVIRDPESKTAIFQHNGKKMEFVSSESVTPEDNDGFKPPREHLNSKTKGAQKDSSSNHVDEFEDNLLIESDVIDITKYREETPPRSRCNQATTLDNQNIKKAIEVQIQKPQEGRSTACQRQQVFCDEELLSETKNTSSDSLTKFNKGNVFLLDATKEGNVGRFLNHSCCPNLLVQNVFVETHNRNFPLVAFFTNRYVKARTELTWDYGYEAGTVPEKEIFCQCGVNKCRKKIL
Procedure: Potential binding partners for peptide CL02A3 wt were identified in a β-galactosidase yeast two-hybrid (YTH) assay using peptide CL02A3 wt as bait and a cDNA library constructed from the A5T4 reporter cell line as prey. Binding was assessed by β-galactosidase quantification using BetaFluor (Novagen) as a substrate. A negative interaction control (no cDNA fused downstream of the GAL4 activation domain sequence) was also run. A general outline of the YTH assay is illustrated in FIG. 5A. Following clustering, filtering to remove non-specific bait hits (e.g., GFP and BFP), singletons and clusters recognized by 10 or more cDNA baits (based upon historical YTH assays), and prioritization, 64 prey clones were identified as hits.
Potential targets identified in the YTH assay were reconfirmed as generally outlined in FIG. 6. The cDNA clones identified as hits in the YTH assay were purified and rescreened for interaction with the CL02A3 wt peptide in a YTH assay. The hit clones were also screened in a control assay for interaction with the BFP using a vector (pGBKT7) that contained only the BFP and not the CL02A3 peptide. At this stage, 51 putative target clones remained.
The interaction of CL02A3 wt peptide and its mutants with the clones identified as potential targets for the peptide CL02A3 wt was then quantified in a β-galactosidase YTH assay. The YTH assay was performed in the manner described above. A general outline of this YTH assay is illustrated in FIG. 5B. For each clone tested, an interaction profile was developed by comparing the β-galactosidase activity of each mutant to that of the wild type peptide, as described above.
The interaction of these IOF, ROF and LOF mutants with different polypeptides encoded by the putative target clones were quantified using the YTH assay described above. […]

binding to human CLLD8 protein in yeast two hybrid interaction assay [3]	Sequence	Reporter Ratio [1]	other results
–	RAHGHHGWPWGMEQGCTPLG (peptide encoded by synthetic oligomer) [CL02A3AM]	–	functional category compared to CL02A3 wt, based on reporter ratio ([1]; % change calculated after subtracting 1.0 from the ratios): LOF (Cells expressing a loss of function mutant have a reporter ratio of <1.11)
found to bind	AMHGHHGWPWGMEQGCTPLG (peptide encoded by synthetic oligomer) [CL02A3wt]	–	endogenous α inhibition ratio [2]: 0.89
found to bind	AMHGHHAAPWGMEQGCTPLG (peptide encoded by synthetic oligomer) [CL02A3GW]	–	–
–	AMHGHHGWAAGMEQGCTPLG (peptide encoded by synthetic oligomer) [CL02A3PW]	1.24	–
–	AMAAHHGWPWGMEQGCTPLG (peptide encoded by synthetic oligomer) [CL02A3HG]	1.5	–
found to bind	AMHGHHGWPWGMEQGCTPAA (peptide encoded by synthetic oligomer) [CL02A3LG]	–	–
–	AMHGHHGWPWGMEQGCAALG (peptide encoded by synthetic oligomer) [CL02A3TP]	1.91	–
–	AMHGHHGWPWGMEQAATPLG (peptide encoded by synthetic oligomer) [CL02A3GC]	1.89	–
–	AMHGAAGWPWGMEQGCTPLG (peptide encoded by synthetic oligomer) [CL02A3HH]	1.29	–
–	AMHGHHGWPWGMAAGCTPLG (peptide encoded by synthetic oligomer) [CL02A3EQ]	2.23,	–
